pKi: −log10 of the molar value. Converted amounts (≈) assume the structure as drawn.
Legend:
[1] = biological target: T1, Carbonic anhydrase 4 (Bos taurus, UniProt Q95323)
T1 sequence (Q95323 whole entry): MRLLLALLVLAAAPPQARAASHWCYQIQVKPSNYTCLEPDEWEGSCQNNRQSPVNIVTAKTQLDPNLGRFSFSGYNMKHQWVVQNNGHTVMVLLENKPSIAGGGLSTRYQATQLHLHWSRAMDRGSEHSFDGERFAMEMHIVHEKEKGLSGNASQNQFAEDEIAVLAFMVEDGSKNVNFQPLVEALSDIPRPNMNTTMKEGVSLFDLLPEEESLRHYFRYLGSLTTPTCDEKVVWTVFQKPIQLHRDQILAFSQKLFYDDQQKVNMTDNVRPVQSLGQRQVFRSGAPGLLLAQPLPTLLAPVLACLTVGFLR
Description: Inhibitory activity against bovine carbonic anhydrase IV

[2] = octanol/water
[3] = not given; remark: listed apart in the source
[4] = physchem; conditions: buffer, pH 5.5
Description: Solubility in buffer at pH 5.5

[5] = biological target: Carbonic anhydrase 1 (Homo sapiens, UniProt P00915)
Description: Inhibitory activity against Human carbonic anhydrase I

[6] = not given; remark: listed apart in the source
[7] = not given; remark: listed apart in the source
[8] = Solubility in Chloroform buffer at pH 7.4; type: physicochemical
[9] = Solubility in buffer at pH 7.4; type: physicochemical
[10] = Partition coefficient in Chloroform-buffer at pH 7.4; type: physicochemical
[11] = species: Oryctolagus cuniculus
[12] = species: Oryctolagus cuniculus; remark: listed apart in the source
[13] = species: Oryctolagus cuniculus; remark: listed apart in the source
[14] = species: Oryctolagus cuniculus; remark: listed apart in the source
[15] = Solubility in chloroform buffer at pH 7.4; type: physicochemical

Carbonic anhydrase 1, sequence (P00915 whole entry): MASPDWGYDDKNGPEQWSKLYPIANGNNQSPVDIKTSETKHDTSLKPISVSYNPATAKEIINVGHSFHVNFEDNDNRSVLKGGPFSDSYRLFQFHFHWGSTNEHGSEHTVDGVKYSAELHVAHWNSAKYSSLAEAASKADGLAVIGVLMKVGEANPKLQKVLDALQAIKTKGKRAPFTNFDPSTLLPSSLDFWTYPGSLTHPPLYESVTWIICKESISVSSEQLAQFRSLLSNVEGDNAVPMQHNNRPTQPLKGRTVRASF

| pKi [1] | logD [2] | pKi [5] | Kin x10e3 [6] [hr-1] | Kin x10e3 [7] [hr-1] | Molecule | further results |
| --- | --- | --- | --- | --- | --- | --- |
| 7.49 | 1.747 | 7.11 | – | – | NS(=O)(=O)c1ccc(NC(=O)CN(CCOCCOCCN(CC(=O)O)CC(=O)O)CC(=O)O)c(Br)c1 | Kin x10e3: 6.5 hr-1; Kin x10e3 [3]: 3.3 hr-1; solubility [4]: 50 mM (≈ 30.7 mg/mL) |
| 7.29 | 1.764 | 7.19 | 3.6 | 7 | NS(=O)(=O)c1cc(S(N)(=O)=O)c(NC(=O)CN(CCN(CC(=O)O)CC(=O)Nc2c(S(N)(=O)=O)cc(S(N)(=O)=O)c(Cl)c2Cl)CC(=O)O)c(Cl)c1Cl | solubility [8]: 32 mM (≈ 28.7 mg/mL) |
| 7.96 | 1.166 | 7.35 | – | – | NS(=O)(=O)c1nc2ccc(OC(=O)CNCCNCC(=O)O)cc2s1 | Kin x10e3: 8.4 hr-1; Kin x10e3 [3]: 4.7 hr-1; solubility [4]: 44 mM (≈ 17.1 mg/mL) |
| 7.59 | 1.75 | 6.67 | 4.8 | 9.5 | Cn1nc(S(N)(=O)=O)s/c1=N/C(=O)CN(CCN(CC(=O)O)CC(=O)O)CC(=O)O | solubility [8]: 65 mM (≈ 30.5 mg/mL) |
| 7.46 | 2.354 | 6.68 | 5.1 | 10.7 | NS(=O)(=O)c1nnc(NC(=O)CCNC(=O)CN(CCN(CC(=O)O)c2ccccc2O)c2ccccc2O)s1 | solubility [8]: 44 mM (≈ 26.1 mg/mL) |
| 8.00 | 1.15 | 6.90 | 3 | 5.9 | NS(=O)(=O)c1nnc(NC(=O)CCNC(=O)CN(CCN(CC(=O)O)CC(=O)NCCC(=O)Nc2nnc(S(N)(=O)=O)s2)CC(=O)O)s1 | solubility [9]: 46 mM (≈ 34.9 mg/mL) |
| 6.74 | 0.983 | – | 3.8 | 6.9 | NS(=O)(=O)c1ccc(NC(=O)CN(CCN(CCN(CC(=O)O)CC(=O)O)CC(=O)O)CC(=O)O)cc1 | solubility [8]: 48 mM (≈ 26.3 mg/mL) |
| 8.00 | – | 7.36 | – | – | NS(=O)(=O)c1nc2ccc(OCCOC(=O)CN(CC(=O)O)CC(=O)O)cc2s1 | logD [10]: 1.925; solubility [9]: 37 mM (≈ 16.6 mg/mL) |
| 7.80 | 1.534 | 6.81 | – | – | NS(=O)(=O)c1ccc(NC(=O)CN(CCOCCOCCN(CC(=O)O)CC(=O)Nc2ccc(S(N)(=O)=O)cc2F)CC(=O)O)c(F)c1 | Kin x10e3: 8.3 hr-1; Kin x10e3 [3]: 4.5 hr-1; solubility [4]: 47 mM (≈ 34.1 mg/mL) |
| 7.77 | 1.333 | – | 3.1 | 5.5 | Cn1nc(S(N)(=O)=O)s/c1=N/C(=O)CN(CCN(CC(=O)O)CC(=O)/N=c1/sc(S(N)(=O)=O)nn1C)CC(=O)O | solubility [8]: 41 mM (≈ 26.4 mg/mL) |
| – | – | – | – | – | (Carboxymethyl-{2-[2-(2-{carboxymethyl-[(5-sulfamoyl-[1,3,4]thiadiazol-2-ylcarbamoyl)-methyl]-amino}-ethoxy)-ethoxy]-ethyl}-amino)-acetic acid; compound with Cu complex | Delta IOP [11]: 4.7 mmHg; Delta IOP [12]: 9.6 mmHg; Delta IOP [13]: 13.5 mmHg; Delta IOP [14]: 0 mmHg |
| 7.32 | – | 6.55 | 2.5 | 4.6 | NS(=O)(=O)c1nnc(NC(=O)CCNC(=O)CNCC(=O)O)s1 | logD [10]: 1.23; solubility [15]: 62 mM (≈ 22.7 mg/mL) |
| 8.15 | 1.961 | – | – | – | NS(=O)(=O)C1N=NC(NC(=O)CN(CCN(CCN(CC(=O)O)CC(=O)NC2N=NC(S(N)(=O)=O)S2)CC(=O)O)CC(=O)O)S1 (centres undefined) | Kin x10e3: 6.2 hr-1; Kin x10e3 [3]: 3.9 hr-1; solubility [4]: 54 mM (≈ 39 mg/mL) |
| 6.81 | 1.456 | – | 3.6 | 4.5 | NS(=O)(=O)c1ccc(NC(=O)CN(CCN(CCN(CC(=O)O)CC(=O)Nc2ccc(S(N)(=O)=O)cc2)CC(=O)O)CC(=O)O)cc1 | solubility [8]: 35 mM (≈ 24.6 mg/mL) |
| 7.55 | 1.375 | – | 4.3 | 8.1 | NS(=O)(=O)c1nnc(NC(=O)CN(CCN(CCN(CC(=O)O)CC(=O)O)CC(=O)O)CC(=O)O)s1 | solubility [8]: 59 mM (≈ 32.8 mg/mL) |
| 7.68 | 1.446 | 7.27 | – | – | NS(=O)(=O)c1nnc(NC(=O)CN(CCOCCOCCN(CC(=O)O)CC(=O)O)CC(=O)O)s1 | Kin x10e3: 8.4 hr-1; Kin x10e3 [3]: 4.6 hr-1; solubility [4]: 52 mM (≈ 28.2 mg/mL) |
| 6.82 | – | 6.47 | – | – | NS(=O)(=O)c1ccc(COC(=O)CN(CCOCCOCCN(CC(=O)O)CC(=O)OCc2ccc(S(N)(=O)=O)cc2)CC(=O)O)cc1 | – |
| 6.70 | – | 6.34 | – | – | NS(=O)(=O)c1ccc(COC(=O)CN(CCN(CC(=O)O)CC(=O)OCc2ccc(S(N)(=O)=O)cc2)CC(=O)O)cc1 | – |
| 7.30 | – | 6.65 | – | – | NS(=O)(=O)c1ccc(NC(=O)CN(CCN(CC(=O)O)CC(=O)Nc2ccc(S(N)(=O)=O)cc2Cl)CC(=O)O)c(Cl)c1 | – |
| 8.05 | – | 7.48 | – | – | NS(=O)(=O)c1nc2ccc(NC(=O)CN(CCN(CC(=O)O)CC(=O)Nc3ccc4nc(S(N)(=O)=O)sc4c3)CC(=O)O)cc2s1 | – |
| 7.89 | – | 7.28 | – | – | NS(=O)(=O)c1nc2ccc(NC(=O)CN(CCN(CC(=O)O)c3ccccc3O)c3ccccc3O)cc2s1 | – |
| 7.43 | – | 6.65 | – | – | NS(=O)(=O)c1nnc(NC(=O)CN(CCN(CC(=O)O)CC(=O)O)CC(=O)O)s1 | – |
| 6.35 | – | 4.69 | – | – | NS(=O)(=O)c1ccc(NC(=O)CN(CC(=O)O)CC(=O)O)cc1 | – |
| 6.67 | – | 5.98 | – | – | NS(=O)(=O)c1ccc(CCNC(=O)CN(CCN(CC(=O)O)c2ccccc2O)c2ccccc2O)cc1 | – |
| 6.60 | – | 6.30 | – | – | NS(=O)(=O)c1ccc(COC(=O)CN(CCOCCOCCN(CC(=O)O)CC(=O)O)CC(=O)O)cc1 | – |
| 7.46 | – | 7.30 | – | – | NS(=O)(=O)c1cc(S(N)(=O)=O)c(NC(=O)CN(CCOCCOCCN(CC(=O)O)CC(=O)O)CC(=O)O)c(Cl)c1Cl | – |
| 7.89 | – | 6.92 | – | – | NS(=O)(=O)c1nnc(NC(=O)CCNC(=O)CN(CCOCCOCCN(CC(=O)O)CC(=O)O)CC(=O)O)s1 | – |
